Measured values taken from the supplement of paper PMC13380429.

Tests used:
Conditions in all cases: 72 h
Calu-3 [1] = test: relative viability EC50 (midpoint between 100% and the lowest measured viability); higher = less toxic
Vero E6 [2] = test: as above
HepG2 [3] = test: as above
Caco-2 [4] = test: as above
U2OS [5] = test: as above
Calu-3 [6] = test: drug sensitivity score (DSS) for viability; higher = more toxic; extreme values may be limits of the assay
Vero E6 [7] = test: as above
HepG2 [8] = test: as above
Caco-2 [9] = test: as above
U2OS [10] = test: as above
Calu-3 [11] = test: cell viability relative to DMSO; higher = less toxic
Vero E6 [12] = test: as above
HepG2 [13] = test: as above
Caco-2 [14] = test: as above
U2OS [15] = test: as above

Row | Structure (SMILES) | relative viability EC50 (Calu-3 [1]) | relative viability EC50 (Vero E6 [2]) | relative viability EC50 (HepG2 [3]) | relative viability EC50 (Caco-2 [4]) | relative viability EC50 (U2OS [5]) | drug sensitivity score (Calu-3 [6]) | drug sensitivity score (Vero E6 [7]) | drug sensitivity score (HepG2 [8]) | drug sensitivity score (Caco-2 [9]) | drug sensitivity score (U2OS [10]) | cell viability (Calu-3 [11]; 1 nM) | cell viability (Calu-3 [11]; 10 nM) | cell viability (Calu-3 [11]; 100 nM) | cell viability (Calu-3 [11]; 1000 nM) | cell viability (Calu-3 [11]; 10000 nM) | cell viability (Vero E6 [12]; 1 nM) | cell viability (Vero E6 [12]; 10 nM) | cell viability (Vero E6 [12]; 100 nM) | cell viability (Vero E6 [12]; 1000 nM) | cell viability (Vero E6 [12]; 10000 nM) | cell viability (HepG2 [13]; 1 nM) | cell viability (HepG2 [13]; 10 nM) | cell viability (HepG2 [13]; 100 nM) | cell viability (HepG2 [13]; 1000 nM) | cell viability (HepG2 [13]; 10000 nM) | cell viability (Caco-2 [14]; 1 nM) | cell viability (Caco-2 [14]; 10 nM) | cell viability (Caco-2 [14]; 100 nM) | cell viability (Caco-2 [14]; 1000 nM) | cell viability (Caco-2 [14]; 10000 nM) | cell viability (U2OS [15]; 1 nM) | cell viability (U2OS [15]; 10 nM) | cell viability (U2OS [15]; 100 nM) | cell viability (U2OS [15]; 1000 nM) | cell viability (U2OS [15]; 10000 nM)
1 | COc1ccc2c(c1OC)C(=O)O[C@@H]2[C@H]1c2c(cc3c(c2OC)OCO3)CCN1C [noscapine] | > 10 µM | > 10 µM | > 10 µM | > 10 µM | > 10 µM | 0 | 0 | 0 | 0 | 0 | 97.3% | 103% | 102% | 95.9% | 95.8% | 98.4% | 102% | 96.9% | 104% | 104% | 105% | 100% | 86.2% | 100% | 104% | 115% | 109% | 98% | 110% | 105% | 103% | 98.7% | 101% | 97.5% | 102%
2 | Cc1cc(C)c(S(=O)(=O)Nc2ccccc2C(F)(F)F)c(C)c1 [o-3M3FBS] | > 10 µM | > 10 µM | > 10 µM | > 10 µM | > 10 µM | 0 | 0 | 0 | 0 | 0 | 98.9% | 99.5% | 89.4% | 100% | 93.7% | 95.8% | 98.4% | 94.3% | 88.3% | 97.3% | 102% | 109% | 95.6% | 94.9% | 99.4% | 94.2% | 99.4% | 98.3% | 97.7% | 103% | 96.8% | 99.8% | 97.8% | 95.6% | 96.5%
3 | CCCCCCCC/C=C\CCCCCCCC(N)=O [oleamide] | > 10 µM | > 10 µM | > 10 µM | > 10 µM | > 10 µM | 0 | 0 | 0 | 0 | 0 | 107% | 98.7% | 93.9% | 104% | 89.7% | 97.3% | 99.3% | 100% | 100% | 101% | 104% | 101% | 99.2% | 92.7% | 104% | 99.3% | 92.4% | 95.3% | 96.5% | 99.7% | 98.8% | 103% | 97.1% | 100% | 91.3%
4 | CN(C)c1cc(CNCC(C)(C)C)c(O)c2c1C[C@H]1C[C@H]3[C@H](N(C)C)C(O)=C(C(N)=O)C(=O)[C@@]3(O)C(O)=C1C2=O [omadacycline] | > 10 µM | > 10 µM | > 10 µM | > 10 µM | > 10 µM | 0.3 | 0 | 0 | 0 | 0 | 108% | 91.4% | 102% | 88.9% | 92.4% | 96.3% | 101% | 97.1% | 98.8% | 97.3% | 101% | 90.9% | 96.9% | 105% | 87% | 107% | 95.1% | 100% | 97.4% | 96.4% | 102% | 103% | 99.9% | 102% | 98.2%
5 | CCC(CC)O[C@@H]1C=C(C(=O)O)C[C@H](N)[C@H]1NC(C)=O [oseltamivir-carboxylate] | > 10 µM | > 10 µM | > 10 µM | > 10 µM | > 10 µM | 0 | 0 | 0 | 0 | 0 | 98.9% | 98.6% | 98.6% | 98.2% | 103% | 98.4% | 99.7% | 98.1% | 95.9% | 104% | 104% | 99.3% | 108% | 95.5% | 115% | 89.8% | 96.8% | 99.7% | 99.5% | 101% | 100% | 99.8% | 97.2% | 102% | 105%
6 | O=C1CCCCCCCCCCCCCCO1 [oxacyclohexadecan-2-one] | > 10 µM | > 10 µM | > 10 µM | > 10 µM | > 10 µM | 0 | 0 | 0 | 0 | 0 | 93.2% | 99.1% | 91.9% | 90% | 90.7% | 102% | 106% | 102% | 88.8% | 102% | 109% | 93.8% | 105% | 86% | 97.7% | 103% | 95.1% | 90% | 92.8% | 102% | 101% | 98.9% | 95.8% | 101% | 98%
7 | O=c1[nH]c2ccccc2n1CCCN1CCN(C(c2ccccc2)c2ccccc2)CC1 [oxatomide] | > 10 µM | > 10 µM | > 10 µM | > 10 µM | > 10 µM | 0 | 0 | 1.9 | 0.1 | 0 | 107% | 96.1% | 105% | 99.2% | 101% | 106% | 93.1% | 99.9% | 91.7% | 95.6% | 97.7% | 104% | 114% | 81.7% | 92.2% | 117% | 98.6% | 99.1% | 112% | 83.7% | 100% | 102% | 94.1% | 97.1% | 106%
8 | Cc1cc(C(C)(C)C)c(O)c(C)c1CC1=NCCN1 [oxymetazoline] | > 10 µM | > 10 µM | > 10 µM | > 10 µM | > 10 µM | 0 | 0 | 1.5 | 0.9 | 0 | 92.1% | 92.3% | 94.5% | 101% | 107% | 100% | 106% | 102% | 95.7% | 98.7% | 103% | 87.9% | 104% | 84% | 88% | 97.6% | 93.7% | 80.4% | 96.6% | 83.6% | 100% | 99.5% | 98.9% | 100% | 96.4%
9 | CCC[C@H](N[C@@H](C)C(=O)N1[C@H](C(=O)O)C[C@@H]2CCCC[C@@H]21)C(=O)O [perindoprilat] | > 10 µM | > 10 µM | > 10 µM | > 10 µM | > 10 µM | 0 | 0 | 0 | 0 | 0 | 100% | 96.1% | 90.6% | 103% | 93.2% | 104% | 104% | 100% | 95.3% | 97.8% | 104% | 96.3% | 103% | 105% | 96.5% | 103% | 93.9% | 107% | 96.8% | 138% | 95.2% | 98.5% | 94.6% | 105% | 92.2%
10 | CC(C)NCC(O)c1ccc2ccccc2c1 (stereo not given) [pronethalol] | > 10 µM | > 10 µM | > 10 µM | > 10 µM | > 10 µM | 0 | 0 | 0 | 0 | 0 | 91.1% | 99% | 101% | 93.8% | 93.8% | 112% | 106% | 100% | 94.3% | 98.7% | 105% | 91.6% | 104% | 87% | 106% | 89.8% | 97.7% | 87.4% | 90.8% | 93.1% | 98.5% | 105% | 97.7% | 102% | 95.5%
11 | Cc1oc(=O)oc1CN1CCN(c2cc3c(cc2F)c(=O)c(C(=O)O)c2n3C(C)S2)CC1 (stereo not given) [prulifloxacin] | > 10 µM | > 10 µM | > 10 µM | > 10 µM | > 10 µM | 0 | 0 | 0 | 0 | 0 | 104% | 95.8% | 99.4% | 96.2% | 97.3% | 102% | 111% | 115% | 94.5% | 97.3% | 107% | 112% | 110% | 106% | 97.2% | 94.8% | 91.6% | 120% | 103% | 97.8% | 95.8% | 99.8% | 100% | 95.7% | 100%
12 | CC(C)[C@H](CO)Nc1nc(Nc2ccc(C(=O)O)c(Cl)c2)c2ncn(C(C)C)c2n1 [purvalanol-B] | > 10 µM | > 10 µM | > 10 µM | > 10 µM | > 10 µM | 0 | 0 | 0 | 0 | 0 | 111% | 101% | 106% | 114% | 95.5% | 94% | 96.4% | 95.9% | 94.9% | 103% | 93.5% | 99.2% | 99.1% | 98.4% | 98.9% | 89.4% | 91.9% | 103% | 96.8% | 98.3% | 97.1% | 96.1% | 101% | 103% | 107%
13 | Cc1ncc(CO)c(C=O)c1O [pyridoxal] | > 10 µM | > 10 µM | > 10 µM | > 10 µM | > 10 µM | 0 | 0 | 1.3 | 0 | 0 | 105% | 91.4% | 99.9% | 99.7% | 118% | 102% | 92.6% | 96% | 94.4% | 102% | 91% | 81.7% | 102% | 94.1% | 80% | 114% | 104% | 104% | 112% | 92.1% | 98.6% | 95.7% | 103% | 103% | 99.9%
14 | N#CN1CCCC1 [pyrrolidine-1-carbonitrile] | > 10 µM | > 10 µM | > 10 µM | > 10 µM | > 10 µM | 0 | 0 | 0 | 0 | 0 | 97.6% | 104% | 108% | 107% | 97.9% | 99.6% | 99.2% | 98.2% | 95.3% | 105% | 90.6% | 91.1% | 94.4% | 95.2% | 101% | 103% | 94.7% | 95.4% | 95.9% | 110% | 90.3% | 98% | 97.9% | 104% | 107%
